System: F1G cells

## Cc1cccc2nc(CSC(=S)NCc3cccnc3)cn12 [Compound 1, (5-methylimidazo[1,2-a]pyridin-2-yl)methyl (pyridin-3-ylmethyl)carbamodithioate]
  cytotoxicity: without cytoxicity at the active doses
